# Measured values taken from patent US10077455B2, “3HP tolerance” (TECHNICAL UNIVERSITY OF DENMARK, priority 2013, dated 2018).
# Columns and labels:
# haploid wild-type cells = details: cited from earlier work
# [1] = test system: E. coli strains W3110, CROOKS, W, BL21 (DE3), MG1655; assay: Effect of GSH addition on growth of E. coli strains in M9 with 20 g/L 3HP; assay type: cell-based; details: for effect of GSH addition on viability: M9 minimal medium with 20 g/L 3HP, pH 7.0, 37° C.
# Procedure: For E. coli, the effect of GSH addition on the growth of E. coli in the presence of 20 g/L 3HP was investigated. Five platform E. coli wild-type strains e.g. W3110, CROOKS, W, BL21 (DE3) and MG1655 were selected for 3HP tolerance experiment. Single colony from each strain was inoculated into 3 mL M9 medium and incubated at 250 rpm, 37° C., overnight. Two μL of the overnight cultures were used to inoculate 150 μL M9 medium, M9 with 20 g/L 3HP, and M9 with 20 g/L 3HP and 5 mM GSH in 96-well flat bottom plate. The pH of all E. coli tested media was at pH 7.0.
# The composition of M9 medium was as follows: 2.0 g/L glucose, 6.8 g/L Na HPO4, 3.0 g/L KH2PO4, 0.5 g/L NaCl, 1.0 g/L NH4Cl, 0.24 g/L MgSO4, 0.011 g/L CaCl2, 0.5 mL/L trace elements solution, and 1.0 mL/L Wolfe's Vitamin solution. The trace elements solution included 1.0 g/L FeCl3.6H2O, 0.18 g/L ZnSo4.7H2O, 0.12 g/L CuCl2.2H2O, 0.12 g/L MnSO4.H2O, and 0.18 g/L CoCl2.6H2O. The Wolfe's vitamin solution included 10 mg/L pyridoxine hydrochloride, 5.0 mg/L thiamine HCl, 5.0 mg/L riboflavin, 5.0 mg/L nicotinic acid, 5.0 mg/L calcium-(+) phantothenate, 5.0 mg/L para-amino benzoic acid, 5.0 mg/L thiotic acid, 2.0 mg/L d-biotin, 2.0 mg/L folic acid, and 0.1 mg/L vitamin B12. The trace elements and vitamin solutions were sterile-filtered and the solution was stored at 4° C. The M9 salt solution was prepared as a 10× concentrate solution and sterilized by autoclaving. 20% Glucose solution, 1M MgSO4, and 1M CaCl2 stock solutions were autoclaved separately.
# T. delbrueckii = assay: Effect of GSH addition on growth of yeast strains with 50 g/L 3HP; assay type: cell-based, Torulaspora delbrueckii
# Procedure: (§2) The yeast strains were grown in 3 mL Delft medium (pH 6.0) at 250 rpm, 25° C., overnight. Three μL of the overnight cultures were used to inoculate 100 μL Delft medium (pH 6.0) with or without 50 g/[MUT] in 96-well flat bottom plate. The 96-well plate was incubated with shaking in the SynergyTM MX microplate reader (BioTek) at 25° C. and the absorbance was measured at 600 nm wavelength every 15 min for 72 hours. Experiments were done in triplicates, and the specific growth rate (h^-1) was calculated. The effect of GSH addition was performed by adding 5 mM GSH into the cultivation medium containing 50 g/[MUT]. The growth of each strain was determined as mentioned above.
# [2] = test system: S. cerevisiae WT, SFA1-alleles and sfa1Δ strains
# Procedure: The role of GSH in 3HP detoxification was investigated. The WT, SFA1-allles, and sfa1Δ strains were grown in the minimal medium with or without 50 g/L 3HP and supplemented with various concentration of external GSH (0-30 mM) and tested for 3HP tolerance.
# For testing 3HP tolerance phenotype, the pre-cultures were prepared by inoculation of a single colony in 1 mL Delft buffered (pH 3.5) media containing 10 g/L 3HP. The cultures were incubated at 30° C. with 250 rpm overnight. Five μL of the overnight cultures were used to inoculate 100 μL Delft buffered (pH 3.5) with or without 50 g/L 3HP and various concentration of GSH (0, 1, 2.5, 5, 10, and 20 mM) in 96-well flat bottom plate. The 96-well plate was incubated at 30° C. with shaking in the Synergy™ MX microplate reader (BioTek) and the absorbance was measured at 600 nm wavelength every 15 min for 42 hours. Experiments were done in triplicates.
# C. jadinii = assay: Effect of GSH addition on growth of yeast strains with 50 g/L 3HP; assay type: cell-based, Cyberlindnera jadinii
# Procedure: as §2
# K. lactis = details: 5 mM GSH, 50 g/L 3HP, Delft medium pH 6.0, 25° C.
# Procedure: (§1) The yeast strains were grown in 3 mL Delft medium (pH 6.0) at 250 rpm, 25° C., overnight. Three μL of the overnight cultures were used to inoculate 100 μL Delft medium (pH 6.0) with or without 50 g/[…] in 96-well flat bottom plate. The 96-well plate was incubated with shaking in the SynergyTM MX microplate reader (BioTek) at 25° C. and the absorbance was measured at 600 nm wavelength every 15 min for 72 hours. Experiments were done in triplicates, and the specific growth rate (h^-1) was calculated. The effect of GSH addition was performed by adding 5 mM GSH into the cultivation medium containing 50 g/[…]. The growth of each strain was determined as mentioned above.
# S. cerevisiae = details: 5 mM GSH, 50 g/L 3HP, Delft medium pH 6.0, 25° C.
# Procedure: as §1
# S. kluyveri = details: 5 mM GSH, 50 g/L 3HP, Delft medium pH 6.0, 25° C.
# Procedure: as §1
# Rhodotorula minuta = assay: Effect of GSH addition on growth of yeast strains with 50 g/L 3HP; assay type: cell-based
# Procedure: as §2
# K. marxianus = assay: as above; assay type: cell-based, Kluyveromyces marxianus
# Procedure: as §2
# Y. lipolytica = assay: as above; assay type: cell-based, Yarrowia lipolytica
# Procedure: as §2
# S. pombe = assay: as above; assay type: cell-based, Schizosaccharomyces pombe
# Procedure: as §2
# [3] = test system: S. cerevisiae strains ST609, ST610, ST611; assay: 3HP tolerance of SFA1 allele replacement strains; assay type: cell-based, Saccharomyces cerevisiae; details: Delft buffered pH 3.5
# Procedure: For testing 3HP tolerance phenotype, two single colonies from each strain: ST609 (SFA1-wt), ST610 (SFA1^G827C) and ST611 (SFA1^G849A) were investigated for the ability to grow on media containing 3HP. […] The plate was incubated at 30° C. with 250 rpm agitation at 5 cm orbit cast overnight. […] Experiments were done in duplicates.
# [4] = test system: S. cerevisiae CEN.PK 113-7D strain (WT); assay: Toxicity of 3HP on growth of S. cerevisiae in Delft minimal medium; assay type: cell-based, Saccharomyces cerevisiae; details: Delft buffered medium pH 3.5, 30° C., 42 hours
# Procedure: The toxicity of 3HP on growth of S. cerevisiae CEN.PK 113-7D strain (WT) was determined by evaluating the ability of the WT strain to grow on a chemically defined minimal medium (Delft) containing varying concentrations of 3HP (0-100 g/L). The composition of Delft medium was as follows: 20.0 g/L glucose, 5.0 g/L (NH4)2SO4, 3.0 g/L KH2PO4, 0.5 g/L MgSO4.7H2O, 1.0 mL/L trace metal solution, 0.05 g/L antifoam A (10794, Sigma-Aldrich), and 1.0 mL/L vitamin solution. The trace element solution included 15 g/L EDTA, 0.45 g/L CaCl2.2H2O, 0.45 g/L ZnSO4.7H2O, 0.3 g/L FeSO4.7H2O, 100 mg/L […], 1 g/L MnCl2.2H2O, 0.3 g/L CoCl2.6H2O, 0.3 g/L CuSO4.5H2O, 0.4 g/L NaMoO4.2H2O. The pH of the trace metal solution was adjusted to 4.0 with 2 M NaOH and heat sterilized. […]
# A single colony from YPD plate (10 g/L yeast extract, 20 g/L peptone, 20 g/L glucose and 20 g/L agar) was inoculated in a shake flask with 20 mL YPD broth and grown at 30° C., with shaking at 200 rpm, overnight. The absorbance (OD600) of the overnight culture was measured at 600 nm wave length using NanoPhotometer™ UV/Vis (Implen) and the culture was diluted with YPD medium to obtain inoculum with the OD600 around 0.8. […] Experiments were done in duplicates, and the specific growth rate (h^−1) was calculated at various concentrations of 3HP.
# [5] = 5 mM GSH, 50 g/L 3HP, Delft medium pH 6.0
smiles,measurement,setting,value
C=O [formaldehyde],concentration that is cytostatic or cytotoxic,haploid wild-type cells,≥ 1000 µM
"N[C@@H](CCC(=O)N[C@@H](CS)C(=O)NCC(=O)O)C(=O)O [GSH, glutathione]",effect of GSH addition on viability,"[1]; strain BL21, 5 mM GSH",restored the viability
same,effect of GSH addition on viability,"[1]; strain CROOKS, 5 mM GSH",restored the viability
same,effect of GSH addition on specific growth rate,"[1]; strain MG1655, 5 mM GSH, medium containing 20 g/L 3HP",improved
same,effect of GSH addition on viability,"[1]; strain W3110, 5 mM GSH",restored the viability
same,effect of GSH addition on viability,"[1]; strain W, 5 mM GSH",restored the viability
same,effect of GSH addition on specific growth rate,T. delbrueckii; [5],improved
same,GSH concentration that restored growth in the presence of 50 g/L 3HP,"[2]; WT S. cerevisiae, 50 g/L 3HP, Delft buffered pH 3.5",≥ 2.5 mM
same,effect of GSH on growth,"[2]; all strains, minimal medium without 50 g/L 3HP",no significant effect
same,effect of GSH addition on growth,"[2]; sfa1Δ strain, 50 g/L 3HP",could not be restored
same,effect of GSH addition on growth rate,"[2]; strain carrying the SFA1 alleles, 50 g/L 3HP",improved the growth rate
same,effect of GSH addition on specific growth rate,C. jadinii; [5],improved
same,effect of GSH addition on viability,K. lactis,restored the viability
same,effect of GSH addition on viability,S. cerevisiae,restored the viability
same,effect of GSH addition on viability,S. kluyveri,restored the viability
same,effect of GSH addition on specific growth rate,Rhodotorula minuta; [5],improved
same,effect of GSH addition on specific growth rate,K. marxianus; [5],improved
same,effect of GSH addition on specific growth rate,Y. lipolytica; [5],improved
same,effect of GSH addition on specific growth rate,S. pombe; [5],improved
"O=C(O)CCO [3HP, 3-hydroxypropionic acid]",decrease in the specific growth rate compared to the cells grown in M9 medium,"[1]; strain MG1655, M9 medium containing 20 g/L 3HP",2.2 fold
same,3HP concentration in minimum media at which the strain could not grow,[3]; ST609 (SFA1-wt allele without over expression),above 40 g/L
same,3HP concentration in minimum media at which the strain could grow,[3]; ST610 (SFA1^G827C),above 40 g/L
same,3HP concentration in minimum media at which the strain could grow,[3]; ST611 (SFA1^G849A),above 40 g/L
same,3HP concentration tolerated (with decreased specific growth rate),"T. delbrueckii; Delft medium pH 6.0, 25° C.",more than 50 g/L
same,3HP concentration tolerated (with decreased specific growth rate),"C. jadinii; Delft medium pH 6.0, 25° C.",more than 50 g/L
same,3HP concentration tolerated (with decreased specific growth rate),"Rhodotorula minuta; Delft medium pH 6.0, 25° C.",more than 50 g/L
same,3HP concentration tolerated (with decreased specific growth rate),"K. marxianus; Delft medium pH 6.0, 25° C.",more than 50 g/L
same,3HP concentration tolerated (with decreased specific growth rate),"Y. lipolytica; Delft medium pH 6.0, 25° C.",more than 50 g/L
same,concentration of 3-HP at which the wild type yeast is unable to grow at all,[4],75 g/L
same,concentration of 3-HP producing a substantial level of inhibition of growth,[4],above 10 g/L
same,3HP concentration tolerated (with decreased specific growth rate),"S. pombe; Delft medium pH 6.0, 25° C.",more than 50 g/L
